Laboratory results: PubChem BioAssay AID256 (DTP/NCI, 2004)
Values joined by “and” are separate entries in the source; they are usually repeats but may differ in a detail not shown here. Identical values can stand only once. Toxic doses and inconclusive results are not listed. The calls were made as follows: active = survival T/C of 150% or more; inactive = T/C below 125% in these data.

Tested on: CD2F1 mice, L1210 leukemia ip, survival T/C
Assay: NCI In Vivo Anticancer Drug Screen. Data for tumor model L1210 Leukemia (intraperitoneal) in CD2F1 (CDF1) mice
Settings: higher = longer survival
Summary of the method: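 Each value reflects a quotient of treated over vehicle control outcomes in mice with a transplanted tumor.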

[1] = endpoint: median survival time, dose: 25.0 mg/kg/injection, schedule: Q01DX009 (ip), vehicle: saline with Tween-80
[2] = endpoint: median survival time, dose: 50.0 mg/kg/injection, schedule: Q01DX009 (ip), vehicle: saline with Tween-80
[3] = endpoint: median survival time, dose: 100.0 mg/kg/injection, schedule: Q01DX009 (ip), vehicle: saline with Tween-80
[4] = endpoint: median survival time, dose: 200.0 mg/kg/injection, schedule: Q01DX009 (ip), vehicle: saline with Tween-80
[5] = endpoint: mean survival time, dose: 100.0 mg/kg/injection, schedule: Q01DX009 (ip), vehicle: saline with Tween-80
[6] = endpoint: mean survival time, dose: 100.0 mg/kg/injection, schedule: Q04DX003 (ip), vehicle: saline with Tween-80
[7] = endpoint: mean survival time, dose: 200.0 mg/kg/injection, schedule: Q01DX009 (ip), vehicle: saline with Tween-80
[8] = endpoint: mean survival time, dose: 200.0 mg/kg/injection, schedule: Q04DX003 (ip), vehicle: saline with Tween-80
[9] = endpoint: mean survival time, dose: 400.0 mg/kg/injection, schedule: Q01DX009 (ip), vehicle: saline with Tween-80
[10] = endpoint: mean survival time, dose: 100.0 mg/kg/injection, schedule: Q04DX002 (ip), vehicle: saline with Tween-80
[11] = endpoint: mean survival time, dose: 200.0 mg/kg/injection, schedule: Q04DX002 (ip), vehicle: saline with Tween-80
[12] = endpoint: mean survival time, dose: 50.0 mg/kg/injection, schedule: Q01DX009 (ip), vehicle: saline with Tween-80

Measured: T/C

CCCC(C)C1(CC)C(=O)NC(=O)NC1=O (configuration not stated)
inactive: endpoint: mean survival time, dose: 20.0 mg/kg/injection, schedule: Q01DX009 (ip), vehicle: saline 95 % of control | endpoint: mean survival time, dose: 40.0 mg/kg/injection, schedule: Q01DX009 (ip), vehicle: saline 104 % of control

COc1cccc(C2NC(=O)c3c(n[nH]c3N)S2)c1O (configuration not stated)
inactive: endpoint: median survival time, dose: 12.5 mg/kg/injection, schedule: Q01DX009 (ip), vehicle: saline with Tween-80 101 % of control | [1] 101 % of control | [2] 102 % of control | [3] 98 % of control | [4] 97 % of control | endpoint: median survival time, dose: 400.0 mg/kg/injection, schedule: Q01DX009 (ip), vehicle: saline with Tween-80 93 % of control

CCCCCC1c2cc(O)ccc2OC1N1CCOCC1 (configuration not stated)
inactive: endpoint: median survival time, dose: 12.0 mg/kg/injection, schedule: Q01DX009 (ip), vehicle: saline with Tween-80 108 % of control | [1] 106 % of control | [2] 97 % of control | [3] 102 % of control | [4] 98 % of control

O=C(O)c1ccccc1-c1ccccc1C(=O)Nc1ccc2c(c1)Cc1ccccc1-2
inactive: endpoint: mean survival time, dose: 62.5 mg/kg/injection, schedule: Q04DX003 (ip), vehicle: saline with Tween-80 101 % of control | endpoint: mean survival time, dose: 125.0 mg/kg/injection, schedule: Q04DX003 (ip), vehicle: saline with Tween-80 98 % of control | endpoint: mean survival time, dose: 250.0 mg/kg/injection, schedule: Q04DX003 (ip), vehicle: saline with Tween-80 98 % of control

CCCCNC(=O)Oc1ccc(OCc2ccccc2)cc1
inactive: [5] 96 % of control | [6] 94 % of control | [7] 89 % of control | [8] 91 % of control | [9] 92 % of control

NC(=O)C1(C(N)=O)CCCC1
inactive: endpoint: mean survival time, dose: 75.0 mg/kg/injection, schedule: Q04DX002 (ip), vehicle: saline with Tween-80 112 % of control | endpoint: mean survival time, dose: 150.0 mg/kg/injection, schedule: Q04DX002 (ip), vehicle: saline with Tween-80 96 % of control | endpoint: mean survival time, dose: 300.0 mg/kg/injection, schedule: Q04DX002 (ip), vehicle: saline with Tween-80 96 % of control

[Cu+2].[NH-]C1(C(=O)O)CCCC1.[NH-]C1(C(=O)O)CCCC1
inactive: endpoint: mean survival time, dose: 2.5 mg/kg/injection, schedule: Q01DX009 (ip), vehicle: saline with Tween-80 89 % of control | endpoint: mean survival time, dose: 5.0 mg/kg/injection, schedule: Q01DX009 (ip), vehicle: saline with Tween-80 100 % of control | endpoint: mean survival time, dose: 5.0 mg/kg/injection, schedule: Q04DX003 (ip), vehicle: saline 91 % of control | endpoint: mean survival time, dose: 10.0 mg/kg/injection, schedule: Q01DX009 (ip), vehicle: saline with Tween-80 94 % of control

CCC(C)CNCCO (configuration not stated)
inactive: endpoint: mean survival time, dose: 100.0 mg/kg/injection, schedule: Q04DX003 (ip), vehicle: saline 100 % of control | endpoint: mean survival time, dose: 200.0 mg/kg/injection, schedule: Q04DX003 (ip), vehicle: saline 95 % of control

COc1ccccc1NC1=NCCO1
inactive: endpoint: mean survival time, dose: 25.0 mg/kg/injection, schedule: Q04DX002 (ip), vehicle: saline with Tween-80 105 % of control | endpoint: mean survival time, dose: 50.0 mg/kg/injection, schedule: Q04DX002 (ip), vehicle: saline with Tween-80 97 % of control | endpoint: mean survival time, dose: 100.0 mg/kg/injection, schedule: Q01DX001 (ip), vehicle: saline with Tween-80 90 % of control | [10] 94 % of control

N/N=C(\N)c1ccccc1
inactive: endpoint: mean survival time, dose: 100.0 mg/kg/injection, schedule: Q01DX001 (ip), vehicle: saline 117 % of control | endpoint: mean survival time, dose: 200.0 mg/kg/injection, schedule: Q01DX001 (ip), vehicle: saline 123 % of control

O=P1(N2CC2)OCCCN1CCCl (configuration not stated)
inactive: endpoint: mean survival time, dose: 3.8 mg/kg/injection, schedule: Q01DX001 (ip), vehicle: distilled water + Tween-80 102 % of control | endpoint: mean survival time, dose: 7.5 mg/kg/injection, schedule: Q01DX001 (ip), vehicle: distilled water + Tween-80 106 % of control | endpoint: mean survival time, dose: 15.0 mg/kg/injection, schedule: Q01DX001 (ip), vehicle: distilled water + Tween-80 107 % of control | endpoint: mean survival time, dose: 30.0 mg/kg/injection, schedule: Q01DX001 (ip), vehicle: distilled water + Tween-80 98 % of control | endpoint: mean survival time, dose: 62.5 mg/kg/injection, schedule: Q01DX001 (ip), vehicle: saline with Tween-80 110 % of control

C=CCCCCn1c2ccccc2c2c(C)c3cnccc3c(C)c21
inactive: [5] 102 % of control | [7] 102 % of control | [9] 97 % of control

Nc1ccc(Cl)c([N+](=O)[O-])c1
inactive: endpoint: mean survival time, dose: 100.0 mg/kg/injection, schedule: Q04DX003 (ip), vehicle: Klucel (hydroxypropylcellulose) (HPC) 94 % of control | endpoint: mean survival time, dose: 200.0 mg/kg/injection, schedule: Q04DX003 (ip), vehicle: Klucel (hydroxypropylcellulose) (HPC) 91 % of control | endpoint: mean survival time, dose: 400.0 mg/kg/injection, schedule: Q04DX003 (ip), vehicle: Klucel (hydroxypropylcellulose) (HPC) 89 % of control

O=C1OC(=O)C2CCCC3CCCC1C32 (configuration not stated)
inactive: [10] 108 % of control | [11] 108 % of control

CC(C)CCCC(C)CO[P+](=O)OCC(C)CCCC(C)C (configuration not stated)
inactive: [10] 103 % of control | [11] 96 % of control | endpoint: mean survival time, dose: 400.0 mg/kg/injection, schedule: Q04DX002 (ip), vehicle: saline with Tween-80 88 % of control

Oc1ccc(CCl)c2cccnc12
inactive: endpoint: median survival time, dose: 12.5 mg/kg/injection, schedule: Q01DX009 (ip), vehicle: saline 102 % of control | endpoint: median survival time, dose: 25.0 mg/kg/injection, schedule: Q01DX009 (ip), vehicle: saline 102 % of control | endpoint: median survival time, dose: 50.0 mg/kg/injection, schedule: Q01DX009 (ip), vehicle: saline 102 % of control | endpoint: median survival time, dose: 100.0 mg/kg/injection, schedule: Q01DX009 (ip), vehicle: saline 95 % of control

Nc1c[n+]([O-])cc2ccccc12
inactive: [6] 94 % of control | [8] 94 % of control

CCOC(=O)c1ccc(Nc2nnc(-c3ccc(OC)cc3OC)s2)cc1
inactive: endpoint: mean survival time, dose: 25.0 mg/kg/injection, schedule: Q01DX009 (ip), vehicle: saline with Tween-80 94 % of control | [12] 88 % of control | [5] 88 % of control and 91 % of control

CCCCOc1ccc(/C=N\NC(=O)CNC(=O)Nc2ccc(F)cc2)cc1
inactive: [12] 92 % of control | [5] 88 % of control | [7] 88 % of control

CC1Cc2ccccc2C1=O (configuration not stated)
inactive: [5] 90 % of control | [7] 91 % of control | [9] 94 % of control

COC(=O)c1ccc(=O)c2nc3/c(=C/O)c(O)cc(=O)c3[nH]c12
inactive: endpoint: mean survival time, dose: 5.0 mg/kg/injection, schedule: Q04DX003 (ip), vehicle: saline with Tween-80 107 % of control | endpoint: mean survival time, dose: 10.0 mg/kg/injection, schedule: Q04DX003 (ip), vehicle: saline with Tween-80 90 % of control

COc1ccc(-c2csc(=[N+]3CCCCC3)s2)cc1
inactive: endpoint: mean survival time, dose: 1.56 mg/kg/injection, schedule: Q01DX009 (ip), vehicle: water 94 % of control and 102 % of control | endpoint: mean survival time, dose: 3.12 mg/kg/injection, schedule: Q01DX009 (ip), vehicle: water 96 % of control and 102 % of control | endpoint: mean survival time, dose: 6.25 mg/kg/injection, schedule: Q01DX009 (ip), vehicle: water 96 % of control and 98 % of control | endpoint: mean survival time, dose: 12.5 mg/kg/injection, schedule: Q01DX009 (ip), vehicle: water 98 % of control and 106 % of control | endpoint: mean survival time, dose: 25.0 mg/kg/injection, schedule: Q01DX009 (ip), vehicle: water 113 % of control and 109 % of control

C1CCC2C(C1)CC1CCCCC1C2C1C2CCCCC2CC2CCCCC21 (configuration not stated)
inactive: [6] 97 % of control | [8] 100 % of control | endpoint: mean survival time, dose: 400.0 mg/kg/injection, schedule: Q04DX003 (ip), vehicle: saline with Tween-80 96 % of control
